Assay [1] can be described thus: Collagen-induced rheumatoid arthritis model, clinical score. The format is in vivo, mice. More on the design: key: 0-4 per limb by redness/deformity, max 16 per animal. Particulars: clinical score 0-16 per animal, Day 0 (before modeling). How it is done:
(§1) The effects of compounds H07, H12, H14, H25, H30, H39 and H44 on rheumatoid arthritis in […] were determined after long term administration by using Lewis male […] (Beijing Vital River Laboratory Animal Technology Co., Ltd.), aged 5-6 weeks and weighing […] as test animals. The anti-inflammatory pharmacodynamics characteristic of the compounds of the invention was discussed.
(§2) A certain amount of compounds were taken and dissolved in 4% Tween 80/0.5% hydroxy propyl methyl cellulose solution. A volume of intragastric administration of mice was 10 ml/kg.
(§3) Collagen type II was dissolved in 0.1M acetic acid and kept in a 4° C. refrigerator overnight at a collagen concentration of 4 mg/mL. Same volume of incomplete Freund adjuvant (Sigma, USA) was added in collagen before injection in test, which was emulsified high speed homogenizer (30000 rpm) to prepare a collagen emulsion. This procedure was carried out on ice.
(§4) Mice were immunologically injected with the collagen emulsion by two separate times for modeling on days 1 and 7 (the day before modeling was day 0). 0.1 ml of collagen emulsion prepared as above was injected intradermally into a root of tail at a single point, and 0.2 ml was injected intradermally into back at two points. The animals were subjected to clinical score and paw volume test from day 10 to day 14 after modeling. Animals successfully modeled (average clinical score≥3 points/animal) were assigned to each administration group, with each group included 10 animals. They were administrated intragastrically with above compounds or resolvents at a dosage of 10 mg/kg twice/day, and administrated intragastrically with methotrexate (2 mg/kg, Sigma, USA) every three days, until day 27. During the test, the […] were scored twice a week, and the paw volume and body weight were measured twice.
(§5) According to the different degrees of lesions (redness and joint deformation), the scores were ranged from 0 to 4 points, with the highest score of 4 points for each limb and 16 points for each animal. Scoring standards are as follows: 0, no redness; 1, slight redness on mid legs (tarsals) or ankles; 2, slight redness from ankles to mid legs (tarsals); 3, medium redness from ankles to tarsometatarsal joints; 4, severe redness from toes or fingers to ankles or wrist joints.

For a further assay, the system named is Lewis male mice. The description is as above. Type of assay: in vivo. The arrangement: key: 0-4 per limb by redness/deformity, max 16 per animal. Conditions: clinical score 0-16 per animal, compounds 10 mg/kg twice/day, methotrexate 2 mg/kg every three days. How it is done:
as §1, §2, §3, §4, §5

Another assay concerns the target JAK1 (Homo sapiens (Human), UniProt P23458). The assay is described as follows: JAK1 LANCE Ultra kinase assay. Particulars: for IC50: 38 uM ATP; for JAK2/JAK1: ratio of IC50 JAK2 to IC50 JAK1. The format is biochemical. The procedure, abridged:
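JAK1 preincubated with compound 10 min at room temperature, then ULight-JAK-1 peptide/ATP added for 90 min at room temperature; stopped with EDTA, Eu-W1024 anti-phosphotyrosine TR-FRET read after 60 min. Inhibition normalised to DMSO and blank wells; IC50 from curve fit.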

Another assay concerns the target JAK3 (Homo sapiens (Human), UniProt P52333). The assay is described as follows: JAK3 LANCE Ultra kinase assay. The format is biochemical. Particulars: 4 uM ATP. For orientation: Time-resolved FRET reads energy transfer from a long-lived donor to a nearby acceptor.
The target of the next assay is JAK2 (Homo sapiens (Human), UniProt O60674). The assay is described as follows: JAK2 LANCE Ultra kinase assay. Type of assay: biochemical. Particulars: 12 uM ATP.
Chain of JAK2 (O60674 whole entry): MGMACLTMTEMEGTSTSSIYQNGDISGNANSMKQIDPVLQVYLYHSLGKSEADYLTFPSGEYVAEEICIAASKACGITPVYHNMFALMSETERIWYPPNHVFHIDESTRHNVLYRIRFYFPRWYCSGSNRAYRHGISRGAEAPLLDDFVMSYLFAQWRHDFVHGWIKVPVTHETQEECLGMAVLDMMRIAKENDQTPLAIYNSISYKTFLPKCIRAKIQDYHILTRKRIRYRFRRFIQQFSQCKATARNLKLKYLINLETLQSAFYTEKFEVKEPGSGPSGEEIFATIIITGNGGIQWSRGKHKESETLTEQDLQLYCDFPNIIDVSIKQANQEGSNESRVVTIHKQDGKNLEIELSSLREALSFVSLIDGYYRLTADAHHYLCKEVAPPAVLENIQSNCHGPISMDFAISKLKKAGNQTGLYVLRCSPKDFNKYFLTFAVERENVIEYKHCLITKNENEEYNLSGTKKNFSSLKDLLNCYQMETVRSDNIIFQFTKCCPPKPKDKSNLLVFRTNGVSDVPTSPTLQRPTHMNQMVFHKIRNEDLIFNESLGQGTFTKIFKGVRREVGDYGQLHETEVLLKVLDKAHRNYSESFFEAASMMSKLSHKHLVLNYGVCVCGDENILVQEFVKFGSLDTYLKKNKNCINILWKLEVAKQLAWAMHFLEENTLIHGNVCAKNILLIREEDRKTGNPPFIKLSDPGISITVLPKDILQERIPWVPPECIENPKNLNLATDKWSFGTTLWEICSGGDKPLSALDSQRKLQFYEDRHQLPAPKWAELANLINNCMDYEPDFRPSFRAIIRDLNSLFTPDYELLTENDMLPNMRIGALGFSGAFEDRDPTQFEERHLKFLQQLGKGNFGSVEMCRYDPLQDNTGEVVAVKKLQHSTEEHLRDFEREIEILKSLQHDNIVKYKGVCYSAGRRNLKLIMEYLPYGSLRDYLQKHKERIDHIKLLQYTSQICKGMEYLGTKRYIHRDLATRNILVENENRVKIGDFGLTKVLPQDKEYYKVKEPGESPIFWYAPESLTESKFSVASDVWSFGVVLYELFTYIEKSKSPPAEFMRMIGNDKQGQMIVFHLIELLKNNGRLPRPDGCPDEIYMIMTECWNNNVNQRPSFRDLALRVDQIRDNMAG

As a reminder, the IC50 is the concentration that inhibits the measured activity by half.

Chain of JAK1 (P23458 whole entry): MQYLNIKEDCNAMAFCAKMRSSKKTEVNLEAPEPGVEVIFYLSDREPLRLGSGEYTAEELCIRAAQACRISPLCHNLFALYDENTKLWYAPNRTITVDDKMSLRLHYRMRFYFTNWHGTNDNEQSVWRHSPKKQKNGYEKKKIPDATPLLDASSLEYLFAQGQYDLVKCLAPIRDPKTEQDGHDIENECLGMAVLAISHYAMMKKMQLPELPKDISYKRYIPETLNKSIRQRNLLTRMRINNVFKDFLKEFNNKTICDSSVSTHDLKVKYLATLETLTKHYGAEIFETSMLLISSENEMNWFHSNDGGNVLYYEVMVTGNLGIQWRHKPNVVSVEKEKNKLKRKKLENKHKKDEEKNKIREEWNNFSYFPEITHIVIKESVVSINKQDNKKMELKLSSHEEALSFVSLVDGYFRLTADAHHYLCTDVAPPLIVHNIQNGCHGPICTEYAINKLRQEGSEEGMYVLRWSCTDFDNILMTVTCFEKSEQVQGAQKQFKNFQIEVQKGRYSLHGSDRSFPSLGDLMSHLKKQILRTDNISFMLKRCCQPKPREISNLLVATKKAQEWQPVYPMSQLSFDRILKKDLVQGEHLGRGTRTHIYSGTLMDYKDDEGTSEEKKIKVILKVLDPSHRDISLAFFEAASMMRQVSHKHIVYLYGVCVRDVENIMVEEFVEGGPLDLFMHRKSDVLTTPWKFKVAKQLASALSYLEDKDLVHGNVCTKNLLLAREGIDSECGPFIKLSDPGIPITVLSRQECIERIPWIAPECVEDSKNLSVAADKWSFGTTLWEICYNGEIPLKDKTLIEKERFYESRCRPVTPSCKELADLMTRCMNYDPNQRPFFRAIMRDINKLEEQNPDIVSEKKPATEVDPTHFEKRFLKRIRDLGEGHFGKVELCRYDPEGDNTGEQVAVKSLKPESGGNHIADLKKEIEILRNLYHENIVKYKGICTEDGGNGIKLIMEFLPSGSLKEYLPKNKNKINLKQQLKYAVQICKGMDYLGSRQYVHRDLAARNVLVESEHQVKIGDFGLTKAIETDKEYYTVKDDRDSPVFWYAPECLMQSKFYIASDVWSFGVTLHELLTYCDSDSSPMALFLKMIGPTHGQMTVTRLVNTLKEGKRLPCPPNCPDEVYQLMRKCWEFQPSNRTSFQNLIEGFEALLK
Chain of JAK3 (P52333 whole entry): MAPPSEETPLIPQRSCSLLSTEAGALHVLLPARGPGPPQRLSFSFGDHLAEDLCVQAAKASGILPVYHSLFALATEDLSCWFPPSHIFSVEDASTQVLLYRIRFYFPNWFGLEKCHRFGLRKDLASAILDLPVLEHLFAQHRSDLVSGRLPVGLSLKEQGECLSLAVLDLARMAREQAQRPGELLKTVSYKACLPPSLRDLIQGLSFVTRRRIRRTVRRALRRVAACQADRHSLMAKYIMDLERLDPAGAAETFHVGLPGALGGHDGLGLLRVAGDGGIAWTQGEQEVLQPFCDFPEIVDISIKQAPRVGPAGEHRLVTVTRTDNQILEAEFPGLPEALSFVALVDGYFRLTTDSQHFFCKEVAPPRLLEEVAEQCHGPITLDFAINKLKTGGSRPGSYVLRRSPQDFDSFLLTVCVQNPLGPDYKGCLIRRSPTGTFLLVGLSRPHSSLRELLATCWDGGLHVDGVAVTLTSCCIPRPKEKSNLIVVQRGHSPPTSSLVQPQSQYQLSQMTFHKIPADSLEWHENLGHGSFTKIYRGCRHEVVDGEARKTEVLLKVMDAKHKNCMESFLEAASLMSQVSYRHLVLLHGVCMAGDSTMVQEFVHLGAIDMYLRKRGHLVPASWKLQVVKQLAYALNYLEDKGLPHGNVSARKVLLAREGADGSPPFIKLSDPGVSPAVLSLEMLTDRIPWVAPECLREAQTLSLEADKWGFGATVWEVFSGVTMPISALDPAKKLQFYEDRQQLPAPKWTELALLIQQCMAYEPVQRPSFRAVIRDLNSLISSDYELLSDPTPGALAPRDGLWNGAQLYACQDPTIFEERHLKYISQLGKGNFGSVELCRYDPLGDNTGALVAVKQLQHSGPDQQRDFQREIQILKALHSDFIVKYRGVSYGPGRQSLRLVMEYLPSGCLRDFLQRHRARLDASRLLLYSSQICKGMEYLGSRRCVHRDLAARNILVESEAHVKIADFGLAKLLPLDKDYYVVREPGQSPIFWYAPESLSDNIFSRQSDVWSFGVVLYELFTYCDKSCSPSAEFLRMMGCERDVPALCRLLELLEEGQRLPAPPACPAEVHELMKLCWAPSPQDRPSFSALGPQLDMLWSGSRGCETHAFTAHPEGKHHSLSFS

For the molecule `COc1nsc(NC(=O)N2C[C@H]3C[C@H](N(C)c4c(C#N)cnc5[nH]ccc45)C[C@H]3C2)n1` [Compound H07, (3aR,5s,6aS)-4-({2-[(3-methoxy-1,2,4-thiadiazole-5-yl)carbamoyl]-hexahydrocyclopenta[c]pyrrole-5-yl}-methyl-amino)-1H-pyrrolo[2,3-b]pyridin-5-carbonitrile], the “Score Day 0” value in assay [1] came to 0.00 ± 0.00. Further, in the assay on Lewis male mice, the “Score Day 13” value was 3.10 ± 056, the “Score Day 14” value amounted to 4.10 ± 0.41, the “Score Day 18” value was 3.10 ± 0.30 and the “Score Day 21” value stood at 3.00 ± 0.11. Besides, in the assay on Lewis male mice, the “Score Day 25” value is given as 2.00 ± 0.25 and the “Score Day 27” value amounted to 1.00 ± 0.17.

Turning to `C[C@@H]1CCN(C(=O)CC#N)C[C@@H]1N(C)c1c(C#N)cnc2[nH]ccc12` [Compound H11, 4-{[(3R,4R)-1-(2-cyanoacetyl)-4-methylpiperidin-3-yl]-methyl-amino}-1H-pyrrolo[2,3-b]pyridin-5-carbonitrile], the figures for the IC50 at JAK1, on JAK3 and on JAK2 were 1.28 nM, 77 nM and 9.86 nM, respectively. The JAK2/JAK1 on JAK1 stood at 7.70.

As to `N#Cc1cnc2[nH]ccc2c1N[C@H]1C[C@@H](NS(=O)(=O)CCC(F)(F)F)C1` [Compound H12, (cis)-4-{[3-(3,3,3-trifluoropropanesulfonamido)-cyclobutyl-1-yl]-amino}-1H-pyrrolo[2,3-b]pyridin-5-carbonitrile], the 50% inhibitory concentration (IC50) on JAK1 is 0.56 nM. The molecule further had a half-maximal inhibitory concentration (IC50) at JAK3 of 66 nM. For the same molecule, in assay [1], the “Score Day 0” value is given as 0.00 ± 0.00. In the assay with Lewis male mice, the “Score Day 13” value came out at 3.40 ± 0.39, the “Score Day 14” value is 3.90 ± 0.61, the “Score Day 18” value worked out at 2.90 ± 0.67 and the “Score Day 21” value turned out to be 1.23 ± 0.29. Further, in the assay on Lewis male mice, the “Score Day 25” value was determined as 0.60 ± 0.17 and the “Score Day 27” value came to 0.50 ± 0.14. Further, on JAK2, the IC50 was determined as 7.63 nM.

For `CCCS(=O)(=O)N[C@H]1C[C@@H](N(C)c2c(C#N)cnc3[nH]ccc23)C1` [Compound H14, (cis)-4-{[3-(propanesulfonamido)-cyclobutyl-1-yl]-methyl-amino}-1H-pyrrolo[2,3-b]pyridin-5-carbonitrile], at JAK1, half-maximal inhibition (IC50) required 1.78 nM and the JAK2/JAK1 came out at 5.59. Moreover, the half-maximal inhibitory concentration (IC50) against JAK3 stood at 34.2 nM. The “Score Day 0” value in assay [1] was determined as 0.00 ± 0.00. In addition, in the assay on Lewis male mice, the “Score Day 13” value is 3.30 ± 0.32, the “Score Day 14” value came out at 4.10 ± 0.50, the “Score Day 18” value came to 3.20 ± 0.73 and the “Score Day 21” value is 3.20 ± 0.61. For the same molecule, in the assay on Lewis male mice, the “Score Day 25” value stood at 2.20 ± 0.45 and the “Score Day 27” value is on record as 1.10 ± 0.27. This molecule registered a concentration for half-maximal inhibition (IC50) against JAK2 of 9.95 nM.

In the case of `CN(c1c(C#N)cnc2[nH]ccc12)[C@H]1C[C@@H](NS(=O)(=O)CCC(F)(F)F)C1` [Compound H15, (cis)-4-{[3-(3,3,3-trifluoropropanesulfonamide)-cyclobutyl-1-yl]-methyl-amino}-1H-pyrrolo[2,3-b]pyridin-5-carbonitrile], the IC50 was 2.36 nM against JAK1, 244 nM at JAK3 and 16.6 nM against JAK2. The JAK2/JAK1 at JAK1 is given as 7.03.

For `CN(c1c(C#N)cnc2[nH]ccc12)[C@H]1C[C@@H]2CN(C(=O)NCC(F)(F)F)C[C@@H]2C1` [Compound H22, (3aR,5s,6aS)-4-({2-[(2,2,2-trifluoroethyl)-carbamoyl]-hexahydrocyclopenta[c]pyrrole-5-yl}-methyl-amino)-1H-pyrrolo[2,3-b]pyridin-5-carbonitrile], the results for the IC50 at JAK1, against JAK3 and at JAK2 were 0.35 nM, 58 nM and 5.8 nM, respectively. The JAK2/JAK1 at JAK1 is given as 16.40.

Regarding `CN(c1c(C#N)cnc2[nH]ccc12)[C@H]1C[C@@H]2CN(C(=O)Nc3ccc(Cl)c(C(F)(F)F)c3)C[C@@H]2C1` [Compound H25, (3aR,5s,6aS)-N-(4-chloro-3-(trifluoromethyl)phenyl)-5-((5-cyano-1H-pyrrolo[2,3-b]pyridin-4-yl)(methyl)amino)hexahydrocyclopentadiene[c]pyrrole-2(1H)-carboxamide], at JAK1, the IC50 turned out to be 0.56 nM and the JAK2/JAK1 was 11.96. At JAK3, this molecule had an IC50 of 58 nM. For the same molecule, the “Score Day 0” value in assay [1] came to 0.00 ± 0.00. Further, in the assay on Lewis male mice, the “Score Day 13” value is 2.90 ± 0.48, the “Score Day 14” value is 3.40 ± 0.27, the “Score Day 18” value came to 2.13 ± 0.21 and the “Score Day 21” value came to 1.10 ± 0.10. Further, in the assay with Lewis male mice, the “Score Day 25” value worked out at 0.93 ± 0.18 and the “Score Day 27” value is listed as 0.74 ± 0.34. In addition, 6.7 nM corresponded to half-maximal inhibition at JAK2 (IC50).

Take `COc1nsc(NC(=O)N[C@H]2C[C@@H](N(C)c3c(C#N)cnc4[nH]ccc34)C2)n1` [Compound H29, (cis)-1-(3-((5-cyano-1H-pyrrolo[2,3-b]pyridin-4-yl)(methyl)amino)cyclobutyl)-3-(3-methoxy-1,2,4-thiadiazole-5-yl)urea]: the IC50 at JAK1 was determined as 0.36 nM; against JAK3 it was 60 nM; on JAK2 it was 6.8 nM. In addition, the JAK2/JAK1 on JAK1 is listed as 18.89.

Regarding `CC(C)c1nsc(NC(=O)N2C[C@H]3C[C@H](N(C)c4c(C#N)cnc5[nH]ccc45)C[C@H]3C2)n1` [Compound H30, (3aR,5s,6aS)-4-({2-[(3-isopropyl-1,2,4-thiadiazole-5-yl)carbamoyl]-hexahydrocyclopenta[c]pyrrole-5-yl}-methyl-amino)-1H-pyrrolo[2,3-b]pyridin-5-carbonitrile], on JAK1, half-maximal inhibition (IC50) was put at 0.57 nM and the JAK2/JAK1 came out at 11.23. The same molecule gave a 50% inhibitory concentration (IC50) at JAK3 of 76 nM. In addition, the “Score Day 0” value in assay [1] was determined as 0.00 ± 0.00. Moreover, in the assay with Lewis male mice, the “Score Day 13” value was 3.20 ± 0.37, the “Score Day 14” value was 4.00 ± 0.45, the “Score Day 18” value was 3.50 ± 0.50 and the “Score Day 21” value was 2.83 ± 0.29. Further, in the assay on Lewis male mice, the “Score Day 25” value was determined as 2.00 ± 0.27 and the “Score Day 27” value amounted to 1.20 ± 0.27. The same molecule displayed an IC50 on JAK2 of 6.4 nM.

On to `CN(C)c1nsc(NC(=O)N2C[C@H]3C[C@H](N(C)c4c(C#N)cnc5[nH]ccc45)C[C@H]3C2)n1` [Compound H33, (3aR,5s,6aS)-4-({2-[(3-dimethylamino-1,2,4-thiadiazole-5-yl)carbamoyl]-hexahydrocyclopenta[c]pyrrole-5-yl}-methyl-amino)-1H-pyrrolo[2,3-b]pyridin-5-carbonitrile], for which the IC50 against JAK1 was 0.65 nM; against JAK3, 40 nM; on JAK2 it was 5.7 nM. The JAK2/JAK1 at JAK1 is listed as 8.77.

Regarding `N#Cc1cnc2[nH]ccc2c1N1CC2CN(C(=O)NCC(F)(F)F)CC21` (stereo not drawn) [Compound H39, 6-(5-cyano-1H-pyrrolo[2,3-b]pyridin-4-yl)-N-(2,2,2-trifluoroethyl)-3,6-diazabicyclo[3.2.0]heptane-3-carboxamide], on JAK1, inhibition was half-maximal at 0.35 nM (IC50) and the JAK2/JAK1 was 60.00. Besides, the half-maximal inhibitory concentration (IC50) against JAK3 came to 150 nM. For the same molecule, the “Score Day 0” value in assay [1] is 0.00 ± 0.00. In the assay on Lewis male mice, the “Score Day 13” value is recorded as 3.10 ± 0.44, the “Score Day 14” value was determined as 4.10 ± 0.50, the “Score Day 18” value came to 3.0 ± 0.37 and the “Score Day 21” value stood at 2.33 ± 0.31. Moreover, in the assay with Lewis male mice, the “Score Day 25” value is 2.20 ± 0.52 and the “Score Day 27” value is on record as 1.10 ± 0.27. At JAK2, this molecule registered a concentration for half-maximal inhibition (IC50) of 21 nM.

Source of the values: patent publication US12398141B2 (SHANGHAI SYNERGY PHARMACEUTICAL SCIENCES CO., LTD, priority 2019, dated 2025).
